According to article PMC11855478, “Bicyclic N,S-Acetals Containing Fused Cysteine-Amide System as New Heterocyclic Class Targeting Human Farnesyltransferase (FTase-h)” (International Journal of Molecular Sciences, 2025):
pIC50: −log10 of the molar value.

Legend:
[1] = target: human farnesyltransferase (FTase) (Homo sapiens, UniProt P49354+P49356); assay: FTase inhibitory assay (fluorescence, Dansyl-GCVLS); assay type: biochemical; details: for % FTI: inhibition of human FTase at 100 μM of tested compound, mean of two experiments
Procedure: With 40 new products in hand, the determination of their inhibitory activity on human farnesyl-transferase (FTase) in vitro was first undertaken. Dimethyl sulfoxide (DMSO) was used as the negative control, and Chaetomellic acid A was the positive reference in all assays. At the outset, and in order to select only significant results, products with an inhibitory power greater than 60% at an initial screening concentration of 100 µM were retained for the determination of their IC50 and, therefore, for further discussion. Moreover, given the number of products tested, they are grouped into three subfamilies on the basis of the degree of the sulphur atom oxidation (series of sulfides, series of sulfoxides, and series of sulfones), and the results obtained are grouped in Table 1, Table 2 and Table 3.
3.3. FTase Inhibitory Assay
Assays were realized in 96-well plates, prepared with a Biomek NKMC and a Biomek 3000 from Beckman Coulter, and read on a Wallac Victor fluorimeter from PerkinElmer. Per well, 20 µL of farnesyl pyrophosphate (10 μM) was added to 180 µL of a solution containing 2 µL of varied concentrations of potential inhibitors (dissolved in DMSO) and 178 μL of a solution composed of 10 μL of partially purified recombinant human FTase (15 µg mL^−1) and 1.0 µL of Dansyl-GCVLS peptide (in the following buffer: 5.6 mM DTT, 5.6 mM MgCl2, 12 μM ZnCl2 and 0.2% (w/v) octyl-β-D-glucopyranoside, 52 mM Tris/HCl, pH 7.5). Fluorescence was recorded for 15 min (0.7 s per well, 20 repeats) at 30 °C with an excitation filter at 340 nm and an emission filter of 486 nm. Each measurement was reproduced twice, in duplicate. The kinetic experiments were realized under the same conditions, either with FPP as varied substrate with a constant concentration of Dns-GCVLS of 2.5 μM or with Dns-GCVLS as varied substrate with a constant concentration of FPP of 10 μM. Non-linear regressions were performed using the Excel software.

[2] = tested on: MDA-MB-468 breast cancer cells; assay: NCI one dose, MDA-MB-468; assay type: cell-based, human; details: MDA-MB-468, 1.00E-5 Molar one dose
Procedure: (§1) 3.4. Cell Proliferation Assay
(§2) Selected compounds were tested on a panel of 60 human cancer cell lines at the National Cancer Institute (NCI), Germantown, MD, USA. The cytotoxicity studies were conducted using a 48 h exposure protocol using the sulfo-rhodamine B assay.

[3] = tested on: HCT-15 (Colon Cancer); assay: NCI one dose, HCT-15; assay type: cell-based, human; details: HCT-15, 1.00E-5 Molar one dose
Procedure: as §1, §2

[4] = tested on: HOP-62 (Non-Small Cell Lung Cancer); assay: NCI one dose, HOP-62; assay type: cell-based, human; details: HOP-62, 1.00E-5 Molar one dose
Procedure: as §1, §2

[5] = tested on: UACC-257 melanoma cells; assay: NCI one dose, UACC-257; assay type: cell-based, human; details: UACC-257, 1.00E-5 Molar one dose
Procedure: as §1, §2

[6] = tested on: HCC-2998 (Colon Cancer); assay: NCI one dose, HCC-2998; assay type: cell-based, human; details: HCC-2998, 1.00E-5 Molar one dose
Procedure: as §1, §2

[7] = tested on: SK-MEL-28 (Melanoma); assay: NCI one dose, SK-MEL-28; assay type: cell-based, human; details: SK-MEL-28, 1.00E-5 Molar one dose
Procedure: as §1, §2

[8] = tested on: ACHN (Renal Cancer); assay: NCI one dose, ACHN; assay type: cell-based, human; details: 1.00E-5 Molar one dose
Procedure: as §1, §2

[9] = tested on: MOLT-4 (Leukemia); assay: NCI one dose, MOLT-4; assay type: cell-based, human; details: MOLT-4, 1.00E-5 Molar one dose
Procedure: as §1, §2

[10] = tested on: IGROV1 (Ovarian Cancer); assay: NCI one dose, IGROV1; assay type: cell-based, human; details: IGROV1, 1.00E-5 Molar one dose
Procedure: as §1, §2

[11] = tested on: NCI-H23 (Non-Small Cell Lung Cancer); assay: NCI one dose, NCI-H23; assay type: cell-based, human; details: NCI-H23, 1.00E-5 Molar one dose
Procedure: as §1, §2

[12] = tested on: PC-3 (Prostate Cancer); assay: NCI one dose, PC-3; assay type: cell-based, human; details: PC-3, 1.00E-5 Molar one dose
Procedure: as §1, §2

[13] = tested on: panel of 60 human cancer cell lines; assay: NCI 60 cell panel one dose screen (whole panel); assay type: cell-based; parameters: Delta (One Dose Mean Graph): unit not given here; details: 1.00E-5 Molar one dose; for Range (One Dose Mean Graph): in % (unit assumed); for Mean Growth Percent: mean over tested cell lines
Procedure: as §1
Selected compounds were tested on a panel of 60 human cancer cell lines at the National Cancer Institute (NCI), Germantown, MD, USA. The cytotoxicity studies were conducted using a 48 h exposure protocol using the sulfo-rhodamine B assay. […]
X. NCI One Dose Mean Graph of sulfides 4a(A -J) and 4b(A-J)
The entire series of sulfides regrouping twenty synthesized FTI-candidates (4aA-J, 4bA-J) were selected by the National Cancer Institute (NCI) for evaluation of their antiproliferative activity against 60 cancer cell lines (see the followings twenty pages for full evaluation reports). […]
inhibiting 36% of the NCI-H522 cells. Such difference between IC50 on human FTase in the nanomolar range and IC50 on cancer cell growth in the micromolar range is characteristic to potent FTIs and was reported previously on different series of compounds (see for example ref erence in the references part […]
Of interest, none of the tested compounds at a high single dose (10 µM) in the full NCI 60 cell panel has shown a cytotoxic profile. […]
inhibitory potential on FTase raise good hope for further investigation of these series as agents fighting

[14] = tested on: U251 (CNS Cancer); assay: NCI one dose, U251; assay type: cell-based, human; details: U251, 1.00E-5 Molar one dose
Procedure: as §1, §2

[15] = tested on: SF-268 (CNS Cancer); assay: NCI one dose, SF-268; assay type: cell-based, human; details: SF-268, 1.00E-5 Molar one dose
Procedure: as §1, §2

[16] = tested on: A498 (Renal Cancer); assay: NCI one dose, A498; assay type: cell-based, human; details: A498, 1.00E-5 Molar one dose
Procedure: as §1, §2

[17] = tested on: MALME-3M (Melanoma); assay: NCI one dose, MALME-3M; assay type: cell-based, human; details: 1.00E-5 Molar one dose
Procedure: as §1, §2

[18] = tested on: A549/ATCC (Non-Small Cell Lung Cancer); assay: NCI one dose, A549/ATCC; assay type: cell-based, human; details: 1.00E-5 Molar one dose
Procedure: as §1, §2

[19] = tested on: SNB-75 (CNS Cancer); assay: NCI one dose, SNB-75; assay type: cell-based, human; details: SNB-75, 1.00E-5 Molar one dose
Procedure: as §1, §2

[20] = tested on: SK-MEL-2 (Melanoma); assay: NCI one dose, SK-MEL-2; assay type: cell-based, human; details: SK-MEL-2, 1.00E-5 Molar one dose
Procedure: as §1, §2

[21] = tested on: HCT-116 (Colon Cancer); assay: NCI one dose, HCT-116; assay type: cell-based, human; details: HCT-116, 1.00E-5 Molar one dose
Procedure: as §1, §2

| Compound | Growth Percent [2] | Growth Percent [3] | Growth Percent [4] | Growth Percent [5] | Growth Percent [6] | Growth Percent [7] | Growth Percent [8] | Growth Percent [9] | Growth Percent [10] | Growth Percent [11] | Growth Percent [12] | Delta (One Dose Mean Graph) [13] | Range (One Dose Mean Graph) [13] | Mean Growth Percent [13] | Growth Percent [14] | Growth Percent [15] | Growth Percent [16] | Growth Percent [17] | Growth Percent [18] | Growth Percent [19] | also measured |
| --- | --- | --- | --- | --- | --- | --- | --- | --- | --- | --- | --- | --- | --- | --- | --- | --- | --- | --- | --- | --- | --- |
| COc1ccc(CNC(=O)[C@@H]2CS[C@H]3c4ccccc4C(=O)N23)cc1OC [4aI] | 102.27% | 109.55% | 98.51% | 75.20% | 105.82% | 110.57% | 105.56% | 99.18% | 109.87% | 92.75% | 88.12% | 34.91 | 52.35 | 98.56% | 93.84% | 104.77% | 89.23% | 102.18% | 74.91% | 95.63% | % FTI [1]: 62%; Growth Percent [20]: 80.08%; Growth Percent [21]: 98.84% |
| O=C(NCc1ccccc1C(F)(F)F)[C@@H]1CS[C@H]2c3ccccc3C(=O)N12 [4aC] | 112.27% | 103.73% | 87.37% | 86.31% | 111.38% | 99.12% | 99.65% | 85.46% | 98.93% | 105.15% | 85.22% | 21.44 | 40.62 | 96.28% | 91.06% | 93.86% | 98.14% | 108.73% | 90.42% | 85.21% | pIC50 ([1]; human FTase in vitro): 6.23; % FTI [1]: 62%; Growth Percent [20]: 99.87%; Growth Percent [21]: 87.63% |
| O=C(NCc1cccc(C(F)(F)F)c1)[C@@H]1CS[C@H]2c3ccccc3C(=O)N12 [4aD] | 98.77% | 100.16% | 85.91% | 89.32% | 121.37% | 108.89% | 101.09% | 86.93% | 95.38% | 100.33% | 86.39% | 22.37 | 46.64 | 97.10% | 94.74% | 96.16% | 103.16% | 106.15% | 94.49% | 75.92% | % FTI [1]: 37%; Growth Percent [20]: 94.10%; Growth Percent [21]: 91.63% |
| COc1cccc(CNC(=O)[C@@H]2CS[C@@]3(C)c4ccccc4C(=O)N23)c1 [4bE] | 93.38% | 102.87% | 98.17% | 81.73% | 107.01% | 112.92% | 106.16% | 85.50% | 107.98% | 98.91% | 96.89% | 31.41 | 48.09 | 98.86% | 100.00% | 106.18% | 85.49% | 110.68% | 76.25% | 98.09% | % FTI [1]: 56%; Growth Percent [20]: 97.24%; Growth Percent [21]: 104.89% |
| O=C(NCc1ccccc1)[C@@H]1CS[C@H]2c3ccccc3C(=O)N12 [4aA] | 105.86% | 103.68% | 97.31% | 96.60% | 101.83% | 110.09% | 102.35% | 95.69% | 105.80% | 100.85% | 96.96% | 20.43 | 35.31 | 99.75% | 97.80% | 90.56% | 102.15% | 111.55% | 97.86% | 84.04% | Growth Percent [20]: 105.03%; Growth Percent [21]: 87.66% |
